Reference: patent EP3771719A1, “A PEPTIDE BINDING TO TAU-PROTEIN” (Hochschule für angewandte Wissenschaften Fachhochschule …, priority 2019, dated 2021)
Non-standard residues stand in square brackets, D forms with d. No end group written: not given here.

Legend:
[1] = system: tau-protein; experiment: ThT aggregation assay of tau-protein with heparin; format: biochemical; details: 24 µM tau, 6 µM heparin, 36 h
Protocol: A ThT-aggregation assay of tau was performed for quantifying the relative content of fibrils in the presence of peptides and heparin (6 µM). The concentration of tau-protein was 24 µM, the peptides were added at a ratio of 1:5 and 1:10 (tau-protein:peptide). The fluorescence measured of 24 µM tau-protein after incubation for 36h was arbitrarily set to be 100%, and the measured values and standard deviations of the other incubations are indicated as percentage proportions of this maximum value.
A ThT-aggregation assay of tau was performed for quantifying the relative content of fibrils in the presence of peptides and heparin (6 µM). Here, the D-enantiomers of the peptides and their retro-inverso-versions are used. "retro-inverso-version" as used herein, refers to a sequence wherein the amino acid sequence of one peptide, as read from its N-terminus to its C-terminus, has been reversed, such that the N-terminus and C-terminus of the peptide sequence have been inverted. The concentration of tau-protein was 24 µM, and the peptides MMD2 and MMD2rev were added at a ratio of 1:10. The peptides MMD3 and MMD3rev were added at a ratio of 1:5 and 1:10 (tau-protein:peptide). The fluorescence of tau-protein at 24 µM after an incubation of 36 h was arbitrarily set to be 100% and the measured values and standard deviations of the other incubations are indicated as percentage proportions of this maximum value.
To test the ability of the L-synthesized peptides to inhibit the aggregation of tau in vitro, thioflavin assays were performed. The peptides were added to the aggregation mix in a molar ratio of 1:5 and/or 1:10 (tau:peptide), respectively. As positive control, tau was incubated with heparin without addition of peptides, negative controls were tau alone with THT and buffer including THT. The relative fluorescence of the positive control was set to be 100% after 36 h of incubation and the relative fluorescence of the samples was normalized to the positive control.
To investigate the potential of the selected D-peptides MMD2, MMD2rev, MMD3 and MMD3rev to inhibit fibrillization of full-length tau, thioflavin fluorescence assays were performed. Tau aggregation was initiated by addition heparin to tau protein in a concentration of 24 µM, the mixtures were incubated in absence or presence of the respective peptide in a molar ratio of 1:10, in case of MMD2 as well as MMD2rev, and in molar ratio 1:10 and 1:5, in case of MMD3 and MMD3rev. After 36 hours of incubation, the fluorescence of the tau and heparin control sample reached a saturation level, and the value of fluorescence was set to 100%. […] MMD2 reduce the aggregation of tau to about 90% and MMD2rev reduce the aggregation to about 70%. […] The inventors observed also that ThT fluorescence decreased with increasing concentration of the MMD3 and MMD3rev signifying a robust dose-dependent inhibition of full-length tau aggregation.

[2] = system: tau monomers; experiment: ELISA binding of FAM-labeled peptides to tau monomers; details: plate coated with 20 µg/ml tau monomers, FAM-labeled peptide in increasing concentrations, absorbance at 450 nm
Protocol: (§1) Peptides were used that had been labeled with a FAM (=5/6-carboxyfluorescein) at the C-terminus. The peptides used were MM2 (= LTPHKHHKHLHA as L-enantiomer = SEQ ID NO: 6) and MM3 (SEQ ID NO: 1), to which a Lys (FAM)-NH2-residue had been attached at the C-terminus, respectively. The wells of a 96-well plate were coated with 20 µg/ml monomeric tau-protein or tau-fibrils and were incubated for 1h. After washing three times with PBS-T (phosphate-buffered saline with 0.1 % tween), the free binding sites were blocked for over a period of 1 hour. The respective peptides MM2-Lys(FAM)-NH2 and MM3-Lys(FAM)-NH2 were added (1 µg/ml, 5 µg/ml, 10 µg/ml, 20 µg/ml) and incubated for 1h. A specific anti-FITC-HRP antibody (anti-fluorescein-isothiocyanate-horseradish-peroxidase) was added in 1:1000 dilution and was incubated for 1h. Thereafter, TMB-substrate was added and incubated for 20 min. After […] of enzyme reaction by addition of 20% sulfuric acid, the absorption at 450 nm was determined. Measurements were performed in triplicate and the average values of the measured absorption of these triplicate samples as well as their standard deviations are shown in figure 1.
(§2) The binding affinity of MMD2 and MMD3 was tested using ELISA. […] The detection was done with anti-FAM HRP antibodies and absorbance was measured at 450 nm. […]

[3] = system: tau fibrils; experiment: ELISA binding of FAM-labeled peptides to tau fibrils; details: plate coated with 20 µg/ml tau fibrils, FAM-labeled peptide in increasing concentrations, absorbance at 450 nm
Protocol: as §1, §2

[4] = system: PHF6*; experiment: Thioflavin T test of PHF6* aggregation; format: biochemical; details: 1000 µM peptide, 100 µM PHF6*, 10 µM thioflavin T, RT, ThT fluorescence monitored over 30 h
Protocol: PHF6*-fibrils are fibrils comprising the D-enantiomeric version of tau-peptide VQIINK (SEQ ID NO: 5). Peptides MMD3 and MMD3rev were diluted in sodium phosphate buffer to 1000 µM, and 100 µM PHF6*-solution and 10 µM thioflavin T were added. 100 µM PHF6* and 10 µM thioflavin in Napi-buffer was used as positive control. The negative control was 10 µM thioflavin T in Napi-buffer only. The samples were pipetted into a black 96-well µclear flat-bottom plate and incubated for 30 h,the relative fluorescence (excitation = 440 nm and emission = 480 nm) was determined. Triplicate measurements were performed for each sample.
To test whether MMD3 and MMD3rev reduce PHF6* fibril formation, 1000 µM from the respective peptides were incubated with 100 µM PHF6* at RT, as positive control PHF6* was incubated alone. The relative fluorescence of THT was monitored over 30 h.

[5] = system: PHF6* fibrils; experiment: ELISA binding of FAM-labeled peptide to PHF6* fibrils; details: plate coated with 50 µg/ml PHF6* fibrils, FAM-labeled peptide 10, 20, 50 µg/ml, absorption at 450 nm
Protocol: As used herein, "PHF6*-fibrils" are fibrils comprising the D-enantiomeric version of tau-peptide VQIINK (SEQ ID NO: 5). The wells of a 96-well plate were coated with 50 µg/ml PHF6*-fibrils and were incubated for 1h. After washing of wells three times with PBS-T (phosphate buffer saline with 0.1 % tween), the free binding sites were blocked for 1 hour. Peptide MMD3-Lys(FAM)-NH2 was added (10 µg/ml, 20 µg/ml and 50 µg/ml) and incubated for 1 h. A specific anti-FITC-HRP-antibody was added at a dilution of 1:1000 and incubated for 1h. Thereafter, TMB-substrate solution was added and incubated for 20 min. After termination of the enzyme reaction by additional 20 % sulfuric acid, absorption at 450 nm was measured. The absorption of the negative control (buffer only) was substracted. Triplicate measurements were performed, at the average values of the measured absorptions of the different samples are shown as well as their respective standard deviations.
To evaluate the binding properties of MMD3 to PHF6* fibrils, ELISA was performed with FAM-labeled version of the peptide. […] The peptide was added in an increasing concentration, the bound peptide was detected with anti-FAM antibodies. After adding the substrate, the absorption at 450 nm, which represents the binding affinities, was measured.

Row | binding to tau monomers [2] | binding to tau fibrils [3] | Substance | aggregation of tau (relative ThT fluorescence, positive control tau + heparin = 100%) ([1]; molar ratio 1:5 (tau:peptide)) | aggregation of tau (relative ThT fluorescence, positive control tau + heparin = 100%) ([1]; molar ratio 1:10 (tau:peptide)) | inhibition of PHF6* fibril formation [4] | binding to PHF6* fibrils [5]
1 |  |  | DPLKARHTSVWY [MM3] | significantly inhibiting tau fibrils formation | significantly inhibiting tau fibrils formation |  | 
2 |  |  | LTPHKHHKHLHA [MM2, reference compound] | about 50% | nearly complete inhibition |  | 
3 |  |  | ahlhkhhkhptl (AHLHKHHKHPTL; all D-amino acids) [MMD2rev, reference compound] |  | about 70% |  | 
4 | binding could be demonstrated | binding could be demonstrated | dplkarhtsvwy ([dD][dP][dL][dK][dA][dR][dH][dT][dS][dV][dW][dY]) [MMD3] | inhibited formation of tau aggregates significantly | inhibited formation of tau aggregates significantly | did indeed inhibit the formation of PHF6* fibrils | bound to PHF6* fibrils in concentration-dependent manner
5 | binding could be demonstrated | binding could be demonstrated | ltphkhhkhlha [MMD2, reference compound] |  | about 90% |  | 
6 |  |  | ywvsthraklpd ([dY][dW][dV][dS][dT][dH][dR][dA][dK][dL][dP][dD]) [MMD3rev] | inhibited formation of tau aggregates significantly | inhibited formation of tau aggregates significantly | did indeed inhibit the formation of PHF6* fibrils | 
